Target: T1, TCP1 (Homo sapiens, UniProt P17987)
T1 construct: commercial recombinant TCP1 (Abnova), isolated subunit, amine-coupled to CM5 chip; PDB 4B2T was only the docking model
Test: SPR (Biacore T200, CM5 chip, TCP1 amine-coupled)
Assay type: binding

T1 sequence (P17987 whole entry): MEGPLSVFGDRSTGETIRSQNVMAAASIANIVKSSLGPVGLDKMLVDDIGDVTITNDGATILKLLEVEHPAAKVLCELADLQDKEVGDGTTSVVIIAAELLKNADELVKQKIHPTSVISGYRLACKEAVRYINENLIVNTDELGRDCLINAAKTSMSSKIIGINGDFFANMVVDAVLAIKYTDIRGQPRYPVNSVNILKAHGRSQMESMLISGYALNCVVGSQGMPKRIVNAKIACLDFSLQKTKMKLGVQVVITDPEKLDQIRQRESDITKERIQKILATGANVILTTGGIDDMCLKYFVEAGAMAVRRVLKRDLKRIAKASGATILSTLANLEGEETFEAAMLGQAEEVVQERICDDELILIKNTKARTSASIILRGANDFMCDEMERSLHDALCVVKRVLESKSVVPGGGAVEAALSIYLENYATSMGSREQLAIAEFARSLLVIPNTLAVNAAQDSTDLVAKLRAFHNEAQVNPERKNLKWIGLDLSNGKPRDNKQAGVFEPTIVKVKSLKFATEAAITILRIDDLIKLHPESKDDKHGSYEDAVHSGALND

Kd: 6.77 nM
Structure (SMILES): CCCCCCCCc1ccc(CCC(N)(CO)CO)cc1 [FTY720]
